# According to patent US20240369544A1, “MULTIVALENT GLYCAN SCAFFOLDS AND METHODS OF USE THEREOF” (NovAb, Inc., priority 2021, published 2024):
# Where no end group is shown, it is not given here. The star is where a group is joined. αGalNAc = CC(=O)N[C@@H]1[C@@H](O)[C@@H](O)[C@@H](CO)O[C@@H]1*; GalNAcα = O-linked α-N-acetylgalactosamine
# T1: Peanut agglutinin lectin (PNA) (Arachis hypogaea, UniProt P02872)
# T1 sequence (P02872 whole entry, looked up): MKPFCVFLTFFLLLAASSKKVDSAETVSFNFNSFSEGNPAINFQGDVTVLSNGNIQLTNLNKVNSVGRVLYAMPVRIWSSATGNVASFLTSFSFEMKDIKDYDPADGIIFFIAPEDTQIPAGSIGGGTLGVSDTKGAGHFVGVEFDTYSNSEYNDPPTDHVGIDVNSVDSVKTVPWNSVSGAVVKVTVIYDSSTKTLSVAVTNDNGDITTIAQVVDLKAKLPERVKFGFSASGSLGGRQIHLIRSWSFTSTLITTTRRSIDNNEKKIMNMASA
# T2: Peanut agglutinin lectin (PNA), biotinylated, Vector Laboratories (Peanut, UniProt P02872 24-259, limits assumed, biotinylated (sites not given))
# T2 construct: Lectin, described as specific for galactose as found in T-antigen; It was pre-complexed with Avidin-HRP for the assay
# T2 sequence (looked up): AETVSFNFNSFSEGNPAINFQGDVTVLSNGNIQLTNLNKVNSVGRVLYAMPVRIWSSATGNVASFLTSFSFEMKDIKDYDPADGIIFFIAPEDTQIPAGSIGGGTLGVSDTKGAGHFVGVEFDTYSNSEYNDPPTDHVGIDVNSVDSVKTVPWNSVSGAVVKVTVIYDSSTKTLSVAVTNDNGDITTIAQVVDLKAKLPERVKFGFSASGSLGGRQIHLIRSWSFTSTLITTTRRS
# B1: GP100120-dendrimer: synthetic fibroin glycopeptide GP100120 (GAT*ES*RGAGAGA-NH2) conjugated to 8-arm-PEG-NHS (7 arms NHS, 1 arm biotin) (peptide)
# peptide: GAT(GalNAcα)ESRGAGAGA-NH2
# modifications: not fully specified (residue 5); printed as GAT*ES*RGAGAGA-NH2; also: coupled through a primary amine to NHS arm of 8-arm PEG (7 NHS arms, 1 biotin arm), multivalent, copy number not given here
# notes: The dendrimer was captured on streptavidin magnetic beads by its biotin; also called GP100121 glycopeptide dendrimer; GP100121 dendrimer
# Key:
# [1] = system: O13 YSD cells (yeast cells expressing the lamprey O13 VLRB anti-H3 antibody on their surface); assay type: binding
# Procedure: The O13 YSD cells were then washed 3 times with ice-cold TSM-BSA, then resuspended in 250 μL TMS-BSA to which 1 μL of PI was added to stain live/dead cells. 125 μL of each sample were used for flow cytometry measurements.
# anti-H3 antibody = assay: Dissociation constant of monomer H3:anti-H3 antibody interaction; assay type: binding
# [2] = system: Vicia Villosa lectin (VVL); assay: Lectin assay of dendrimers on magnetic beads, VVL; assay type: binding; conditions: dendrimers coupled to streptavidin magnetic beads; lectin at 2 μg/mL pre-complexed with Avidin-HRP
# Procedure: (§1) The Avidin-HRP was purchased from SouthemBiotech. […] 3 μL of dendrimer beads were used per assay.
# [3] = target: T1, Peanut agglutinin lectin (PNA); assay: Lectin assay of dendrimers on magnetic beads, PNA; assay type: binding; conditions: dendrimers coupled to streptavidin magnetic beads; lectin at 2 μg/mL pre-complexed with Avidin-HRP
# Procedure: as §1
# [4] = target: T2, Peanut agglutinin lectin (PNA), …; assay: lectin assay: dendrimer on streptavidin magnetic beads, biotinylated lectin pre-complexed with Avidin-HRP, TMB read-out
molecule,measurement,setting,value
"CC(=O)N[C@H]1C(O)O[C@H](CO)[C@@H](O[C@@H]2O[C@H](CO)[C@H](O)[C@H](O)[C@H]2O[C@@H]2O[C@@H](C)[C@@H](O)[C@@H](O)[C@@H]2O)[C@@H]1O (stereo partly drawn) [monomer H3, Blood group H type 2 trisaccharide]",binding by O13 YSD cells (flow cytometry),[1],not detected
same,Kd,anti-H3 antibody,2000 nM
same,koff of monomer H3:anti-H3 antibody complex,anti-H3 antibody; from Kd=koff/kon with kon 10^6 M^−1 s^−1,2 s⁻¹
"GP100120-dendrimers: Synthetic fibroin glycopeptide GP100120 (GAT*ES*RGAGAGA-NH2, GalNAc on Ser and Thr, SEQ ID NO:5) conjugated to 8-arm-PEG-NHS compound (GAT(αGalNAc)ES(αGalNAc)RGAGAGA-NH2; also: conjugated to 8-arm-PEG-NHS (dendrimer), site not given here)",reactivity to VVL lectin,[2],positive
same,reactivity to PNA lectin,[3],negative
B1,binding result,[4],no binding (tested: 2 µg/mL)
